In general, pIC50 refers to the IC50 on a negative log10 scale, so that one unit is a factor of ten.

SMILES strings stand for the structures. pIC50: −log10 of the molar value.

In the test the target is Recombinant human KIF18A (1-467His-tagged) protein (Homo sapiens (Human), UniProt Q8NI77). The test can be described thus: KIF18A enzyme assay (microtubule-stimulated ATPase activity, ADP-Glo). In kind it is biochemical. The settings on record: 30 nM KIF18A, ATP 75 μM, read-out: inhibitory activity against KIF18A IC50. The gist of the method: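 Baculovirus-expressed human KIF18A (1-467, His-tagged; 30 nM) preincubated 15 min at room temperature with compound (22-point 2-fold series) in pH 7.5 Tris buffer containing 30 μg/mL pig microtubules and 1 μM paclitaxel.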
Recombinant human KIF18A (1-467His-tagged) protein, sequence (Q8NI77 1-467): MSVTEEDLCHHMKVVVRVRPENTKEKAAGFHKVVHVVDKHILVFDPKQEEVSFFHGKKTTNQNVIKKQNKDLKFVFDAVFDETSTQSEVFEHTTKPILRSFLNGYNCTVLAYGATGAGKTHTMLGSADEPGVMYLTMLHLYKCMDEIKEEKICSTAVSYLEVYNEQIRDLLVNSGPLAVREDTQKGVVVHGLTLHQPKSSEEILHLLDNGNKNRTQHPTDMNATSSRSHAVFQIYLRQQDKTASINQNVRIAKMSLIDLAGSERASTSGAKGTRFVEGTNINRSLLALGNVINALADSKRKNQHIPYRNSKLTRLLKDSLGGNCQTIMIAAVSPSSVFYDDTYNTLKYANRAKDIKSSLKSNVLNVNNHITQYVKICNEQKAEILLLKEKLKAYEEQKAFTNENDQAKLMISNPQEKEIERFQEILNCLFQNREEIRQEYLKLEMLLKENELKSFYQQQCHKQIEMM
Recombinant human KIF18A (1-467His-tagged) protein, sequence (P02550 whole entry partner): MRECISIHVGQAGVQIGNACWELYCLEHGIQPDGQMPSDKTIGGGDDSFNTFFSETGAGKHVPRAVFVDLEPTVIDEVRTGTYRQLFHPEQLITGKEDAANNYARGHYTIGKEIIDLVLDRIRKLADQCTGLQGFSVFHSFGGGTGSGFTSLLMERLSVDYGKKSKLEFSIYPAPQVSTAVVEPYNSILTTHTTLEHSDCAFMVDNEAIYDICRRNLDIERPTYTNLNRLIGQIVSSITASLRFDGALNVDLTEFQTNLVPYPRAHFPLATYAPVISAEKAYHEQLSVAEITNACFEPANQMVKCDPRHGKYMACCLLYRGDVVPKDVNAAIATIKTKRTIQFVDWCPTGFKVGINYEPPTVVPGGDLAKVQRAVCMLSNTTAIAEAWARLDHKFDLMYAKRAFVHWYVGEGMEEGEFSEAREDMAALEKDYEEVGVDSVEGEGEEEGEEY
Recombinant human KIF18A (1-467His-tagged) protein, sequence (P02554 whole entry partner): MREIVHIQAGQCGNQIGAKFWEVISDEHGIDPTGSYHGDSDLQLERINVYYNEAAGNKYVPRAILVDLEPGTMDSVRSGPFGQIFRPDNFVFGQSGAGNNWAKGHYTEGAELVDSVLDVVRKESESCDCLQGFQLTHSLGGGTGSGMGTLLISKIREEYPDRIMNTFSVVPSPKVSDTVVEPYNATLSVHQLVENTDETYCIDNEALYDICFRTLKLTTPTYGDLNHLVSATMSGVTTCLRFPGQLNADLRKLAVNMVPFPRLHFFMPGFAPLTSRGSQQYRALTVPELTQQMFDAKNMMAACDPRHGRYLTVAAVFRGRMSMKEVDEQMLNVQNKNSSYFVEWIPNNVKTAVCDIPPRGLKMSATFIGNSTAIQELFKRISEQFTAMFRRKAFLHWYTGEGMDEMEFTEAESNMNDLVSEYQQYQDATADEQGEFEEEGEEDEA
(In general: ADP-Glo first removes unused ATP, then detects ADP through luciferase.)
In the case of `C[C@@H](CO)NS(=O)(=O)c1ccc(C(=O)Nc2cc3c(c(N4CCC(F)(F)CC4)n2)OCC3)c(N2CCC3(CC2)CC3)c1` [Compound 93], the pIC50 is no less than 7.00. As to `O=C(Nc1cc2ccoc2c(N2CCOCC2)n1)c1ccc(NS(=O)(=O)CCO)cc1N1CCC2(CC1)CC2` [Compound 204], the pIC50 was no less than 7.00.

Turning to `O=C(Nc1ccc(S(=O)(=O)NCCO)cc1N1CCC2(CC1)CC2)c1cc2c(c(N3CCOCC3)c1)OCC2` [Compound 60], the pIC50 was no less than 7.00. `CN1CCc2cc(NC(=O)c3ccc(NS(=O)(=O)CCO)cc3N3CCC4(CC3)CC4)nc(N3CC4CC4C3)c21` (stereo not shown) [Compound 330]: the pIC50 was no less than 7.00.

Consider `O=C(Nc1ccc(S(=O)(=O)NCCO)cc1N1CCC2(CC1)CC2)c1cc(N2CCC3(CC3)C2)c2occc2c1` [Compound 182], for which the pIC50 is no less than 7.00. Under `CN1CCc2cc(NC(=O)c3ccc(S(=O)(=O)NCCO)cc3N3CCC4(CC3)CC4)cc(N3CCC(C)(F)C3)c21` (stereo not shown) [Compound 280] stands no less than 7.00; under `C[C@H](CO)NS(=O)(=O)c1ccc(NC(=O)c2cc3c(c(N4CCO[C@H](C)C4)c2)OCC3)c(N2CCC3(CC2)CC3)c1` [Compound 64], no less than 7.00; under `C[C@@H](CO)NS(=O)(=O)c1ccc(C(=O)Nc2cc3ccoc3c(N3CCC(F)(F)CC3)n2)c(N2CCC3(CC2)CC3)c1` [Compound 221], no less than 7.00. Under `O=C(Nc1ccc(S(=O)(=O)NCCO)cc1N1CCC2(CC1)CC2)c1cc2ccoc2c(OC2CCC2)n1` [Compound 247] stands no less than 7.00; under `Cn1ccc2cc(NC(=O)c3ccc(S(=O)(=O)NCCO)cc3N3CCC4(CC3)CC4)cc(N3CCC(F)CC3)c21` [Compound 409], no less than 7.00. The figure for `CC1(F)CCN(c2nc(NC(=O)c3ccc(S(=O)(=O)NCCO)cc3N3CCC4(CC3)CC4)cc3ccoc23)C1` (stereo not shown) [Compound 216] is no less than 7.00. `Cn1ccc2cc(NC(=O)c3ccc(NS(=O)(=O)CCO)cc3N3CCC4(CC3)CC4)cc(N3CC4CC4C3)c21` (stereo not shown) [Compound 394]: the pIC50 is no less than 7.00. On to `Cn1ccc2cc(C(=O)Nc3ccc(NS(=O)(=O)CCO)cc3N3CCC4(CC3)CC4)nc(NC(C)(C)CO)c21` [Compound 491], for which the pIC50 was no less than 7.00. In the case of `CN1CCc2cc(C(=O)Nc3ccc(S(=O)(=O)NCCO)cc3N3CCC4(CC3)CC4)nc(OCCC(F)(F)F)c21` [Compound 373], the pIC50 is no less than 7.00.

As for `C[C@H]1CN(c2nc(C(=O)Nc3ccc(S(=O)(=O)NCCO)cc3N3CCC4(CC3)CC4)cc3ccn(C)c23)CCO1` [Compound 499], the pIC50 is no less than 7.00.

Take `C[C@@H]1CN(c2cc(C(=O)Nc3ccc(NS(=O)(=O)CCO)cc3N3CCC4(CC3)CC4)cc3c2OCC3)CCO1` [Compound 34]: the pIC50 was no less than 7.00. Take `O=C(Nc1ccc(S(=O)(=O)NCCO)cc1N1CCC2(CC1)CC2)c1cc(N2CCC(F)CC2)c2occc2c1` [Compound 185]: the pIC50 was no less than 7.00. With `C[C@@H]1CN(c2nc(NC(=O)c3ccc(NS(=O)(=O)[C@@H](C)CO)cc3N3CCC4(CC3)CC4)cc3c2N(C)CC3)CCO1` [Compound 335], the pIC50 was no less than 7.00. Under `C[C@@H]1CN(c2cc(NC(=O)c3ccc(NS(=O)(=O)CCO)cc3N3CCC4(CC3)CC4)cc3ccoc23)CCO1` [Compound 130] stands no less than 7.00; under `Cn1ccc2cc(NC(=O)c3ccc(NS(=O)(=O)CCO)cc3N3CCC4(CC3)CC4)nc(NC(C)(C)CO)c21` [Compound 459], no less than 7.00; under `CN1CCc2cc(NC(=O)c3ccc(S(=O)(=O)NCCO)cc3N3CCC4(CC3)CC4)cc(N3CC(F)(F)C3)c21` [Compound 276], no less than 7.00.

With `CC(C)(CO)Nc1nc(NC(=O)c2ccc(NS(=O)(=O)CCO)cc2N2CCC3(CC2)CC3)cc2ccoc12` [Compound 203], the pIC50 is no less than 7.00. Turning to `C[C@H](CO)NS(=O)(=O)c1ccc(NC(=O)c2cc3c(c(N4CCC(F)(F)CC4)c2)N(C)CC3)c(N2CCC3(CC2)CC3)c1` [Compound 318], the pIC50 is no less than 7.00.

In the case of `C[C@H]1CN(c2nc(C(=O)Nc3ccc(NS(=O)(=O)CCO)cc3N3CCC4(CC3)CC4)cc3ccoc23)CCO1` [Compound 227], the pIC50 was no less than 7.00. For the compound `O=C(Nc1ccc(NS(=O)(=O)CCO)cc1N1CCC2(CC1)CC2)c1cc(N2CCOCC2)c2occc2c1` [Compound 172], the pIC50 was no less than 7.00. `Cn1ccc2cc(NC(=O)c3ccc(S(=O)(=O)NCCO)cc3N3CCC4(CC3)CC4)nc(OCCC(F)(F)F)c21` [Compound 469]: the negative logarithm of the IC50 (pIC50) is no less than 7.00. The figure for `C[C@@H]1CN(c2cc(C(=O)Nc3ccc(S(=O)(=O)NCCO)cc3N3CCC4(CC3)CC4)cc3c2N(C)CC3)CCO1` [Compound 306] is no less than 7.00; for `C[C@H]1CN(c2nc(NC(=O)c3ccc(S(=O)(=O)NCCO)cc3N3CCC4(CC3)CC4)cc3ccoc23)CCO1` [Compound 211] it is no less than 7.00. Take `O=C(Nc1cc2c(c(N3CCOCC3)c1)OCC2)c1ccc(NS(=O)(=O)CCO)cc1N1CCC2(CC1)CC2` [Compound 12]: the pIC50 was no less than 7.00.

Take `CN1CCc2cc(C(=O)Nc3ccc(NS(=O)(=O)CCO)cc3N3CCC4(CC3)CC4)cc(N3CCC(F)CC3)c21` [Compound 297]: the pIC50 is no less than 7.00.

Turning to `O=C(Nc1cc(OC2CCC2)c2occc2c1)c1ccc(S(=O)(=O)NCCO)cc1N1CCC2(CC1)CC2` [Compound 151], the pIC50 was no less than 7.00. The figure for `C[C@@H](CO)NS(=O)(=O)c1ccc(NC(=O)c2cc3c(c(N4CCC(F)(F)CC4)c2)N(C)CC3)c(N2CCC3(CC2)CC3)c1` [Compound 317] is no less than 7.00; for `C[C@@H]1CN(c2cc(C(=O)Nc3ccc(NS(=O)(=O)[C@H](C)CO)cc3N3CCC4(CC3)CC4)cc3ccn(C)c23)CCO1` [Compound 432] it is no less than 7.00; for `Cn1ccc2cc(NC(=O)c3ccc(NS(=O)(=O)CCO)cc3N3CCC4(CC3)CC4)cc(N3CCOCC3)c21` [Compound 396] it is no less than 7.00.

For the compound `CN1CCc2cc(NC(=O)c3ccc(NS(=O)(=O)CCO)cc3N3CCC4(CC3)CC4)cc(N3CCC(F)CC3)c21` [Compound 265], the negative logarithm of the IC50 (pIC50) is no less than 7.00. `C[C@@H]1CN(c2cc(NC(=O)c3ccc(NS(=O)(=O)[C@@H](C)CO)cc3N3CCC4(CC3)CC4)cc3ccoc23)CCO1` [Compound 143]: the pIC50 was no less than 7.00. Consider `Cn1ccc2cc(C(=O)Nc3ccc(S(=O)(=O)NCCO)cc3N3CCC4(CC3)CC4)nc(N3CCOCC3)c21` [Compound 508], for which the pIC50 was no less than 7.00.

Turning to `O=C(Nc1ccc(S(=O)(=O)NCCO)cc1N1CCC2(CC1)CC2)c1cc2ccoc2c(N2CCC(F)(F)CC2)n1` [Compound 241], the pIC50 was no less than 7.00. Under `O=C(Nc1cc2ccoc2c(N2CCC(F)(F)CC2)n1)c1ccc(NS(=O)(=O)CCO)cc1N1CCC2(CC1)CC2` [Compound 193] stands no less than 7.00; under `Cn1ccc2cc(C(=O)Nc3ccc(S(=O)(=O)NCCO)cc3N3CCC4(CC3)CC4)nc(OC3CCC3)c21` [Compound 503], no less than 7.00. `C[C@@H]1CN(c2nc(C(=O)Nc3ccc(S(=O)(=O)N[C@@H](C)CO)cc3N3CCC4(CC3)CC4)cc3c2N(C)CC3)CCO1` [Compound 383]: the pIC50 was no less than 7.00. Under `O=C(Nc1cc2c(c(N3CCC4(CC4)C3)n1)OCC2)c1ccc(S(=O)(=O)NCCO)cc1N1CCC2(CC1)CC2` [Compound 86] stands no less than 7.00. The figure for `C[C@@H]1CN(c2cc(NC(=O)c3ccc(S(=O)(=O)NCCO)cc3N3CCC4(CC3)CC4)cc3ccn(C)c23)CCO1` [Compound 402] is no less than 7.00.
